Source: patent publication US20240336654A1, “ANTIMICROBIAL PEPTIDOMIMETICS” (SPEXIS AG, priority 2021, published 2024)
Where a SMILES comes first, the peptide text is derived from it. Bridges are numbered along the chain shown (N, C = ends). [ ]: non-standard residue; d: D form. The star is where a group is joined. Val(Nα-amidino) = CC(C)[C@H](NC(=N)N)C(=O)*; dDab(iPr) = CC(C)NCC[C@@H](N)C(=O)O; Dab(iPr) = CC(C)NCC[C@H](N)C(=O)O; Hyp = O=C(O)[C@@H]1C[C@@H](O)CN1; Cit = NC(=O)NCCC[C@H](N)C(=O)O; Pen = CC(C)(S)[C@H](N)C(=O)O; dDab = NCC[C@@H](N)C(=O)O; Dab = NCC[C@H](N)C(=O)O

Tests used:
Assay type in all cases: cell-based
[1] = test system: Escherichia coli MCR-1 Af 45; conditions: MCR-1 Af 45
Procedure, shortened: (§1)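 MICs were determined by CLSI broth microdilution in cation-adjusted Mueller-Hinton II broth with about 5×10^5 CFU/mL inoculum. Peptides were tested in two-fold serial dilutions with 0.002% polysorbate 80 final. MIC in μg/mL is the lowest concentration with no visible growth after 18-20 h at 35 °C.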

[2] = test system: Escherichia coli ATCC 25922; conditions: ATCC 25922
Procedure, shortened: as §1

[3] = test system: Klebsiella pneumoniae SSI3010; conditions: SSI3010
Procedure, shortened: as §1

[4] = test system: human red blood cells (hRBC); conditions: red cells of human, 1 h, 200 μg/mL
Procedure, shortened: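 Percent hemolysis derived from OD540 of supernatants relative to full lysis by 2.5% Triton X-100 (PBS baseline). Washed fresh human erythrocytes (20% v/v) were exposed to 200 μg/mL peptide for 1 h at 37 °C with shaking.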

Row | SMILES | Escherichia coli MCR-1 Af45 MIC [1] [µg/mL] | Escherichia coli ATCC 25922 MIC [2] [µg/mL] | Klebsiella pneumoniae SSI3010 MIC [3] [µg/mL] | Hemolysis at 0.2 g/L [4] [%]
1 | CC[C@H](C)[C@H](NC(=O)[C@@H]1C[C@@H](O)CN1C(=O)[C@@H](NC(=N)N)C(C)C)C(=O)N[C@H]1CCC(=O)NCC[C@@H](C(=O)N[C@@H](Cc2ccc(O)cc2)C(=O)O)NC(=O)[C@H](CCN)NC(=O)[C@H](CCN)NC(=O)[C@H](CCCCN)NC(=O)[C@@H](CCN)NC(=O)[C@H](CO)NC(=O)[C@H](CCN)NC(=O)[C@H](CCCNC(=N)N)NC(=O)[C@H](CC(N)=O)NC(=O)[C@H]([C@@H](C)O)NC(=O)[C@H](Cc2ccc(O)cc2)NC1=O [Example 89, Gua-Val-Hyp-Ile-Glu-Tyr-Thr-Asn-Arg-Dab-Ser-^DDab-Lys-Dab-Dab-Dab-Tyr] ({Val(Nα-amidino)}-[Hyp]IEYTNR[Dab]S[dDab]K[Dab][Dab][Dab]Y-OH; lactam 3-14) | 0.125 | 0.125 | 0.125 | <1
2 | CC[C@H](C)[C@H](NC(=O)[C@@H]1C[C@@H](O)CN1C(=O)[C@@H](NC(=N)N)C(C)C)C(=O)N[C@@H]1C(=O)N[C@@H](Cc2ccc(O)cc2)C(=O)N[C@@H](CO)C(=O)N[C@@H](CC(N)=O)C(=O)N[C@@H](CCCNC(=N)N)C(=O)N[C@@H](CCN)C(=O)N[C@@H]([C@@H](C)O)C(=O)N[C@H](CCN)C(=O)N[C@@H]([C@@H](C)O)C(=O)N[C@@H](CCN)C(=O)N[C@@H](CCN)C(=O)N[C@H](C(=O)N[C@@H](Cc2ccc(O)cc2)C(=O)O)CSSC1(C)C [Example 90, Gua-Val-Hyp-Ile-Pen-Tyr-Ser-Asn-Arg-Dab-Thr-^DDab-Thr-Dab-Dab-Cys-Tyr] ({Val(Nα-amidino)}-[Hyp]I[Pen]YSNR[Dab]T[dDab]T[Dab][Dab]CY-OH; disulfide 3-14) | 0.125 | 0.25 | 0.25 | <1
3 | CC[C@H](C)[C@H](NC(=O)[C@@H]1C[C@@H](O)CN1C(=O)[C@@H](NC(=N)N)C(C)C)C(=O)N[C@@H]1C(=O)N[C@@H](Cc2ccc(O)cc2)C(=O)N[C@@H]([C@@H](C)O)C(=O)N[C@@H](CC(N)=O)C(=O)N[C@@H](CCCNC(=N)N)C(=O)N[C@@H](CCCNC(N)=O)C(=O)N[C@@H]([C@@H](C)O)C(=O)N[C@H](CCN)C(=O)N[C@@H](CCCCN)C(=O)N[C@@H](CCN)C(=O)N[C@@H](CCN)C(=O)N[C@H](C(=O)N[C@@H](Cc2ccc(O)cc2)C(=O)O)CSSC1(C)C [Example 91, Gua-Val-Hyp-Ile-Pen-Tyr-Thr-Asn-Arg-Cit-Thr-^DDab-Lys-Dab-Dab-Cys-Y] ({Val(Nα-amidino)}-[Hyp]I[Pen]YTNR[Cit]T[dDab]K[Dab][Dab]CY-OH; disulfide 3-14) | 0.125 | 0.125 | 0.25 | <1
4 | CC[C@H](C)[C@H](NC(=O)[C@@H]1C[C@@H](O)CN1C(=O)[C@@H](NC(=N)N)C(C)C)C(=O)N[C@@H]1C(=O)N[C@@H](Cc2ccc(O)cc2)C(=O)N[C@@H]([C@@H](C)O)C(=O)N[C@@H](CC(N)=O)C(=O)N[C@@H](CCCNC(=N)N)C(=O)N[C@@H](CCNC(C)C)C(=O)N[C@@H]([C@@H](C)O)C(=O)N[C@H](CCN)C(=O)N[C@@H](CCCCN)C(=O)N[C@@H](CCN)C(=O)N[C@@H](CCN)C(=O)N[C@H](C(=O)N[C@@H](Cc2ccc(O)cc2)C(=O)O)CSSC1(C)C [Example 92, Gua-Val-Hyp-Ile-Pen-Tyr-Thr-Asn-Arg-Dab(iPr)-Thr-^DDab-Lys-Dab-Dab-Cys-Tyr] ({Val(Nα-amidino)}-[Hyp]I[Pen]YTNR[Dab(iPr)]T[dDab]K[Dab][Dab]CY-OH; disulfide 3-14) | 0.0625 | 0.0625 | 0.25 | <1
5 | CC[C@H](C)[C@H](NC(=O)[C@@H]1C[C@@H](O)CN1C(=O)[C@@H](NC(=N)N)C(C)C)C(=O)N[C@@H]1C(=O)N[C@@H](Cc2ccc(O)cc2)C(=O)N[C@@H]([C@@H](C)O)C(=O)N[C@@H](CC(N)=O)C(=O)N[C@@H](CCCNC(=N)N)C(=O)N[C@@H](CCNC(C)C)C(=O)N[C@@H]([C@@H](C)O)C(=O)N[C@H](CCN)C(=O)N[C@@H](CO)C(=O)N[C@@H](CCN)C(=O)N[C@@H](CCN)C(=O)N[C@H](C(=O)N[C@@H](Cc2ccc(O)cc2)C(=O)O)CSSC1(C)C [Example 93, Gua-Val-Hyp-Ile-Pen-Tyr-Thr-Asn-Arg-Dab(iPr)-Thr-^DDab-Ser-Dab-Dab-Cys-Tyr] ({Val(Nα-amidino)}-[Hyp]I[Pen]YTNR[Dab(iPr)]T[dDab]S[Dab][Dab]CY-OH; disulfide 3-14) | 0.25 | 0.25 | 0.5 | <1

More lines, main results first:

Row | Escherichia coli MCR-1 Af45 MIC [1] [µg/mL] | Escherichia coli ATCC 25922 MIC [2] [µg/mL] | Klebsiella pneumoniae SSI3010 MIC [3] [µg/mL] | SMILES | Hemolysis at 0.2 g/L [4] [%]
6 | 0.125 | 0.25 | 0.25 | CC[C@H](C)[C@H](NC(=O)[C@@H]1C[C@@H](O)CN1C(=O)[C@@H](NC(=N)N)C(C)C)C(=O)N[C@@H]1C(=O)N[C@@H](Cc2ccc(O)cc2)C(=O)N[C@@H](CO)C(=O)N[C@@H](CC(N)=O)C(=O)N[C@@H](CCCNC(=N)N)C(=O)N[C@@H](CCN)C(=O)N[C@@H](CC(N)=O)C(=O)N[C@H](CCN)C(=O)N[C@@H](CCCCN)C(=O)N[C@@H](CCN)C(=O)N[C@@H](CCN)C(=O)N[C@H](C(=O)N[C@@H](Cc2ccc(O)cc2)C(=O)O)CSSC1(C)C [Example 94, Gua-Val-Hyp-Ile-Pen-Tyr-Ser-Asn-Arg-Dab-Asn-^DDab-Lys-Dab-Dab-Cys-Tyr] ({Val(Nα-amidino)}-[Hyp]I[Pen]YSNR[Dab]N[dDab]K[Dab][Dab]CY-OH; disulfide 3-14) | <1
7 | 0.125 | 0.125 | 0.25 | CC[C@H](C)[C@H](NC(=O)[C@@H]1C[C@@H](O)CN1C(=O)[C@@H](NC(=N)N)C(C)C)C(=O)N[C@@H]1C(=O)N[C@@H](Cc2ccc(O)cc2)C(=O)N[C@@H]([C@@H](C)O)C(=O)N[C@@H](CC(N)=O)C(=O)N[C@@H](CCCNC(=N)N)C(=O)N[C@@H](CCN)C(=O)N[C@@H]([C@@H](C)O)C(=O)N[C@H](CCNC(C)C)C(=O)N[C@@H](CCCCN)C(=O)N[C@@H](CCN)C(=O)N[C@@H](CCN)C(=O)N[C@H](C(=O)N[C@@H](Cc2ccc(O)cc2)C(=O)O)CSSC1(C)C [Example 95, Gua-Val-Hyp-Ile-Pen-Tyr-Thr-Asn-Arg-Dab-Thr-^DDab(iPr)-Lys-Dab-Dab-Cys-Tyr] ({Val(Nα-amidino)}-[Hyp]I[Pen]YTNR[Dab]T[dDab(iPr)]K[Dab][Dab]CY-OH; disulfide 3-14) | <1
8 | 0.125 | 0.125 | 0.25 | CC[C@H](C)[C@H](NC(=O)[C@@H]1C[C@@H](O)CN1C(=O)[C@@H](NC(=N)N)C(C)C)C(=O)N[C@@H]1C(=O)N[C@@H](Cc2ccc(O)cc2)C(=O)N[C@@H]([C@@H](C)O)C(=O)N[C@@H](CC(N)=O)C(=O)N[C@@H](CCCNC(=N)N)C(=O)N[C@@H](CCN)C(=O)N[C@@H]([C@@H](C)O)C(=O)N[C@H](CCNC(C)C)C(=O)N[C@@H](CO)C(=O)N[C@@H](CCN)C(=O)N[C@@H](CCN)C(=O)N[C@H](C(=O)N[C@@H](Cc2ccc(O)cc2)C(=O)O)CSSC1(C)C [Example 96, Gua-Val-Hyp-Ile-Pen-Tyr-Thr-Asn-Arg-Dab-Thr-^DDab(iPr)-Ser-Dab-Dab-Cys-Tyr] ({Val(Nα-amidino)}-[Hyp]I[Pen]YTNR[Dab]T[dDab(iPr)]S[Dab][Dab]CY-OH; disulfide 3-14) | <1
